Earlier results as cited in US9155756B2, “Method for the prevention and treatment of sepsis” (Universiteit Maastricht, priority 2011, dated 2015).

What was measured:
[1] = system: patients with septic shock; settings: low dose for 5-7 days
[2] = system: patients with severe sepsis

Compound	Clinical outcome [1]	Number needed to treat (NNT) for reduced mortality ([2]; patients with multi-organ failure, large randomized clinical trials)	Mortality ([2]; severe sepsis, decreased from about 31%)
C[C@]12CCC(=O)C=C1CC[C@@H]1[C@@H]2[C@@H](O)C[C@@]2(C)[C@H]1CC[C@]2(O)C(=O)CO [hydrocortisone]	improved outcomes	–	–
drotrecogin alfa	–	16	about 25%
